IC50 data for 28 compounds are collected here from patent EP4700021A1, “NOVEL COMPOUND AND PHARMACEUTICAL COMPOSITION COMPRISING SAME AS ACTIVE INGREDIENT” (Sapiensbio Inc., priority 2023, dated 2025).

A value given as a limit tells only on which side of the number the result lay.

This test relates to α-SMA. In words: in vitro α-SMA expression inhibition (immunostaining, confocal microscopy) in TGF-β1-treated MRC-5 cells. Format: cell-based, human. The note with it: Homo sapiens, TGF-β1 (5 ng/mL), 72 hours, standardized using GAPDH. The text has this:
When scars are generated in tissue, fibroblasts undergo fibroblast-to-myofibroblast transition (FMT), and the resulting myofibroblasts produce the extracellular matrix, leading to tissue fibrosis. α-SMA is a representative biomarker of myofibroblasts, and its expression greatly increases as FMT progresses. Accordingly, through the evaluation of α-SMA expression inhibitory activity, the efficacy of the compounds in inhibiting fibrosis may be evaluated. Therefore, the inhibitory activity of the compounds of the present invention on α-SMA expression was evaluated in cells. To more accurately evaluate the inhibition of α-SMA expression, IC50 values were determined by treating human lung-derived fibroblasts (MRC-5 cells) with the compounds of the present invention in a concentration-dependent manner.
Specifically, 2 hours after the MRC-5 cells were treated with DMSO or compounds dissolved in serum containing 0.5% fetal bovine serum (FBS) in a concentration-dependent manner, fibrosis was induced by treatment with TGF-β1 (5 ng/mL). After 72 hours, the cells were immobilized with a 2% paraformaldehyde solution for 10 minutes, and to impart cell membrane permeability, a 0.1% Triton X-100 solution was treated for 10 minutes, and a 1% bovine serum albumin (BSA) solution was treated to prevent non-specific binding. For immunostaining, anti-GAPDH (BIO-RAD) was first treated as a primary antibody, and Alexa Fluor™ Plus 555 for GAPDH labeling was used as a secondary antibody. For α-SMA staining, an FITC fluorescence-tagged α-SMA primary antibody was used, and thus the increase and decrease in α-SMA caused by the compounds were evaluated. The immunohistochemical experimental results were confirmed with a STELLARIS 5 confocal microscope (Leica), and FITC-stained α-SMA was standardized using GAPDH labeled with Alexa FluorTM Plus 555 for quantification. The IC50 of the compounds according to the present invention was calculated through statistical analysis (linear mixed effects model). […]
For the compound `O=C(NCC1CC1)N1CCN(c2ccc(F)cc2)c2cc(F)ccc21` [Compound 3, N-(cyclopropylmethyl)-6-fluoro-4-(4-fluorophenyl)-3,4-dihydroquinoxaline-1(2H)-carboxamide], the IC50 is 1 to 10 µM.

Consider `O=C(NCC1CC1)N1CCN(c2ccc(F)cc2)c2ccccc21` [Compound 6, N-(cyclopropylmethyl)-4-(4-fluorophenyl)-3,4-dihydroquinoxaline-1(2H)-carboxamide], for which the IC50 was 1 to 10 µM.

Consider `O=C(N1CCCC1)N1CCN(c2ccccc2Cl)c2ccccc21` [Compound 8, (4-(2-chlorophenyl)-3,4-dihydroquinoxaline-1(2H)-yl)(pyrrolidin-1-yl)methanone], for which the IC50 lay within 10 to 30 µM.

`O=C(N1CCOCC1)N1CCN(c2ccccc2Cl)c2ccccc21` [Compound 9, (4-(2-chlorophenyl)-3,4-dihydroquinoxaline-1(2H)-yl)(morpholino)methanone] showed an IC50 not above 30 µM.

Turning to `O=C(N1CCNCC1)N1CCN(c2ccccc2Cl)c2ccccc21` [Compound 10, (4-(2-chlorophenyl)-3,4-dihydroquinoxaline-1(2H)-yl)(piperazin-1-yl)methanone], the IC50 is less than 1 µM.

Take `CC(C)N1CC[C@H](NC(=O)N2CCN(c3ccccn3)c3ccccc32)C1` [Compound 11, (S)-N-(1-isopropylpyrrolidin-3-yl)-4-(pyridin-2-yl)-3,4-dihydroquinoxaline-1(2H)-carboxamide]: the IC50 is 1 to 10 µM.

As to `N[C@H]1CCN(C(=O)N2CCN(c3ccccn3)c3ccccc32)C1` [Compound 12, (S)-(3-aminopyrrolidin-1-yl)(4-(pyridin-2-yl)-3,4-dihydroquinoxaline-1(2H)-yl)methanone], the IC50 was not above 30 µM.

Compound `O=C(NC1CCNCC1)N1CCN(c2ccccn2)c2ccccc21` [Compound 13, N-(piperidin-4-yl)-4-(pyridin-2-yl)-3,4-dihydroquinoxaline-1(2H)-carboxamide] had an IC50 of 1 to 10 µM.

With `O=C(NC[C@@H]1CCNC1)N1CCN(c2ccccn2)c2ccccc21` [Compound 14, (R)-4-(pyridin-2-yl)-N-(pyrrolidin-3-ylmethyl)-3,4-dihydroquinoxaline-1(2H)-carboxamide], the IC50 lay within 1 to 10 µM.

The compound `O=C(NC[C@H]1CCCN1)N1CCN(c2ccccn2)c2ccccc21` [Compound 15, (R)-4-(pyridin-2-yl)-N-(pyrrolidin-2-ylmethyl)-3,4-dihydroquinoxaline-1(2H)-carboxamide] displayed an IC50 of less than 1 µM.

In turn, `O=C(N[C@@H]1CCOC1)N1CCN(c2cccnc2)c2ccccc21` [Compound 16, (R)-4-(pyridin-3-yl)-N-(tetrahydrofuran-3-yl)-3,4-dihydroquinoxaline-1 (2H)-carboxamide] showed an IC50 of 1 to 10 µM.

`CN1CCC(NC(=O)N2CCN(c3ccc(F)cn3)c3ccccc32)CC1` [Compound 18, 4-(5-fluoropyridin-2-yl)-N-(1-methylpiperidin-4-yl)-3,4-dihydroquinoxaline-1(2H)-carboxamide] had an IC50 of 1 to 10 µM.

For `O=C(N[C@H]1CCNC1)N1CCN(c2cnccn2)c2ccccc21` [Compound 19, (S)-4-(pyrazin-2-yl)-N-(pyrrolidin-3-yl)-3,4-dihydroquinoxaline-1(2H)-carboxamide], the IC50 fell in the range of 1 to 10 µM.

For the compound `CN1CC[C@H](NC(=O)N2CCN(c3cnccn3)c3ccccc32)C1` [Compound 20, (S)-N-(1-methylpyrrolidin-3-yl)-4-(pyrazin-2-yl)-3,4-dihydroquinoxaline-1(2H)-carboxamide], the IC50 was less than 1 µM.

As to `CC(C)CN1CC[C@H](NC(=O)N2CCN(c3cnccn3)c3ccccc32)C1` [Compound 22, (S)-N-(1-isobutylpyrrolidin-3-yl)-4-(pyrazin-2-yl)-3,4-dihydroquinoxaline-1(2H)-carboxamide], the IC50 was not above 30 µM.

In turn, `O=C(NC1CCNCC1)N1CCN(c2cnccn2)c2ccccc21` [Compound 23, N-(piperidin-4-yl)-4-(pyrazin-2-yl)-3,4-dihydroquinoxaline-1(2H)-carboxamide] displayed a half-inhibitory concentration (IC50) of 1 to 10 µM.

Consider `CC(C)CN1CCC(NC(=O)N2CCN(c3cnccn3)c3ccccc32)CC1` [Compound 27, N-(1-isobutylpiperidin-4-yl)-4-(pyrazin-2-yl)-3,4-dihydroquinoxaline-1(2H)-carboxamide], for which the IC50 lay within 10 to 30 µM.

As to `CN1CCC(NC(=S)N2CCN(c3cnccn3)c3ccccc32)CC1` [Compound 29, N-(1-methylpiperidin-4-yl)-4-(pyrazin-2-yl)-3,4-dihydroquinoxaline-1 (2H)-carbothioamide], the IC50 is 1 to 10 µM.

For `CN1CC[C@@H](COC(=O)N2CCN(c3cnccn3)c3ccccc32)C1` [Compound 31, (R)-(1-methylpyrrolidin-3-yl)methyl-4-(pyrazin-2-yl)-3,4-dihydroquinoxaline-1(2H)-carboxylate], the IC50 lay in the range of 1 to 10 µM.

As for `O=C(N[C@@H]1CCNC1)N1CCN(Cc2ccccc2)c2ccccc21` [Compound 33, (R)-4-benzyl-N-(pyrrolidin-3-yl)-3,4-dihydroquinoxaline-1(2H)-carboxamide], the IC50 is 1 to 10 µM.

Regarding `CN1CC[C@@H](NC(=O)N2CCN(Cc3ccccc3)c3ccccc32)C1` [Compound 34, (R)-4-benzyl-N-(1-methylpyrrolidin-3-yl)-3,4-dihydroquinoxaline-1(2H)-carboxamide], the IC50 is 1 to 10 µM.

`CN[C@H]1CCN(C(=O)N2CCN(Cc3ccccc3)c3ccccc32)C1` [Compound 36, (S)-(4-benzyl-3,4-dihydroquinoxaline-1(2H)-yl)(3-(methylamino)pyrrolidin-1-yl)methanone]: the IC50 was 10 to 30 µM.

Compound `N[C@H]1CCN(C(=O)N2CCN(Cc3ccccc3F)c3ccccc32)C1` [Compound 37, (S)-(3-aminopyrrolidin-1-yl)(4-(2-fluorobenzyl)-3,4-dihydroquinoxaline-1(2H)-yl)methanone] had an IC50 of 1 to 10 µM.

Turning to `CN[C@H]1CCN(C(=O)N2CCN(Cc3ccccc3F)c3ccccc32)C1` [Compound 38, (S)-(4-(2-fluorobenzyl)-3,4-dihydroquinoxaline-1(2H)-yl)(3-(methylamino)pyrrolidin-1-yl)methanone], the half-maximal inhibitory concentration (IC50) lay in the range of 1 to 10 µM.

The compound `N[C@H]1CCN(C(=O)N2CCN(Cc3cccc(F)c3)c3ccccc32)C1` [Compound 39, (S)-(3-aminopyrrolidin-1-yl)(4-(3-fluorobenzyl)-3,4-dihydroquinoxaline-1(2H)-yl)methanone] had an IC50 of less than 1 µM.

As to `CC(C)N[C@H]1CCN(C(=O)N2CCN(Cc3ccc(F)cc3)c3ccccc32)C1` [Compound 42, (S)-(4-(4-fluorobenzyl)-3,4-dihydroquinoxaline-1(2H)-yl)(3-(isopropylamino)pyrrolidin-1-yl)methanone], the IC50 was in the range of 1 to 10 µM.

With `CN(C)[C@H]1CCN(C(=O)N2CCN(Cc3ccccn3)c3ccccc32)C1` [Compound 46, (S)-(3-(dimethylamino)pyrrolidin-1-yl)(4-(pyridin-2-ylmethyl)-3,4-dihydroquinoxaline-1(2H)-yl)methanone], the IC50 was not above 30 µM.

`CC(C)N[C@H]1CCN(C(=O)N2CCN(Cc3ccccn3)c3ccccc32)C1` [Compound 47, (S)-(3-(isopropylamino)pyrrolidin-1-yl)(4-(pyridin-2-ylmethyl)-3,4-dihydroquinoxaline-1(2H)-yl)methanone] returned an IC50 not above 30 µM.

Broadly, the IC50 is the concentration needed to halve the response being measured.
